Data taken from article PMC5344539, “Nematode neuropeptides as transgenic nematicides” (PLoS Pathogens, 2017).

Tests used:
M. incognita J2s [1] = experiment: Tomato invasion assay with uNLP pre-treated J2s; type: in vivo, Meloidogyne incognita; conditions: for % Invasion: mean
Description: (§1) Predicted uNLPs from both M. incognita and G. pallida were synthesised by EZBiolab and dissolved into pH adjusted ddH2O to make a 5 mM stock which was aliquoted and stored at -20°C. J2s of both M. incognita and G. pallida were incubated for 24 hours in 200 μl of each peptide in a 24 well plate (SPL Lifesciences, South Korea) at a defined concentration.
(§2) Tomato seeds were sterilised with 2.5% NaOCl for 15 minutes, washed 5 times in ddH20 and germinated on 0.5% Murashige and Skoog plates at 23°C. […] Invasion assays were performed by mixing 500 pre-treated M. incognita or G. pallida J2s with agar slurry and a single tomato seedling (2 days post germination) in a 6 well plate. Assays were left at 23°C for 24 hours in the case of M. incognita and at 18°C for 24 hours in the case of G. pallida under a 16 hour light and 8 hour darkness cycle. Seedlings were stained using acid fuschin [69] and the number of nematodes within the roots counted. At least five seedlings were used for M. incognita infections assays, with at least 15 seedlings used for G. pallida infections assays (due to increased variation).

M. incognita J2s [2] = experiment: Serotonin-induced stylet thrusting assay; type: in vivo, Meloidogyne incognita; conditions: Fig 1C; J2s incubated in 100 μM uNLP for 24 h; stylet thrusts in 5 mM serotonin, counted 1 min; normalised to control = 100%; mean, at least 30 J2s
Description: as §1
Stylet thrusting assays where performed by incubating 100 M. incognita or G. pallida J2s for 15 minute in 5 mM or 2 mM serotonin (Sigma Aldrich, USA), respectively. J2s were placed on a glass slide and stylet thrusts were counted for randomly selected J2s, for 1 minute each. Counts for a given cohort of J2s were taken in a maximum interval of 15 minutes. Longer counting intervals, making for longer serotonin incubations, yielded inconsistent results. At least 30 J2s were counted for each neuropeptide treatment.

G. pallida J2s [3] = experiment: Tomato invasion assay with uNLP pre-treated J2s; type: in vivo, Globodera pallida; conditions: 100 μM uNLP, 24 h; tomato cv. Moneymaker; relative to controls
Description: as §1, §2

M. incognita J2s [4] = experiment: Plant protection assay, B. subtilis secreting uNLPs; type: in vivo, Meloidogyne incognita; conditions: Fig 4B; peptide secreted by transgenic B. subtilis culture in tomato invasion arena with 500 J2s; control = 100%; mean
Description: as §2
(§3) B. subtilis were grown overnight in LB media containing ampicillin (100 μg/ml) at 37°C with shaking, and harvested in the log phase of growth determined by measuring OD600nm. Five ml of culture at 0.5 OD was spun down and the pellet mixed with 3 ml of agar slurry and 500 J2s from either G. pallida or M. incognita. C. reinhardtii clones were grown at 23°C with shaking, cultures in the log phase were measured at OD750 and 5 ml of culture at 0.5 OD was pelleted by centrifugation. C. reinhardtii pellets were mixed with 3 ml of agar slurry and 500 J2s from either G. pallida or M. incognita. Plant invasion assays were performed as described above. […]

G. pallida J2s [5] = experiment: as above; type: in vivo, Globodera pallida; conditions: Fig 4D; peptide secreted by transgenic B. subtilis culture in tomato invasion arena with 500 J2s; control = 100%; mean
Description: as §2, §3

[6] = system: S. carpocapsae infective juveniles (IJs); experiment: S. carpocapsae host-finding assay (non-target); type: in vivo, Steinernema carpocapsae; conditions: Fig 5E; chemotaxis towards insect host Galleria mellonella; 100 IJs incubated 24 h in 100 μM uNLP; n = 5; control 0.2315
Description: S. carpocapsae were cultured in Galleria mellonella at 23°C. Infective juveniles (IJs) were collected using a White trap in PBS. Freshly emerged IJs were used for each assay. 100 IJs were incubated for 24 hours in 100 μM of selected uNLPs, and host-finding assays (n = 5) performed as in Morris et al..

SFDSFTGPGFTGLD [Mi-NLP-15b, predicted unamidated NLP perfectly conserved between M. incognita and G. pallida; synthesised, also secreted from transgenic microbes]
effect on host invasion (in words) (M. incognita J2s [1]; 100 μM uNLP, 24 h, tomato cv. Moneymaker, relative to controls): inhibited | % Invasion (M. incognita J2s [1]; Fig 1B, 500 J2s incubated in 100 μM uNLP for 24 h, single tomato seedling, 24 h at 23°C, normalised to negative control = 100%): 32.22% | % Invasion (M. incognita J2s [1]; Fig 3B, 100 nM peptide, 24 h, control = 100%): 69.90% | % Invasion (M. incognita J2s [1]; Fig 3B, 1 µM peptide, 24 h, control = 100%): 59.05% | % Invasion (M. incognita J2s [1]; Fig 3B, 10 µM peptide, 24 h, control = 100%): 54.62% | % Invasion (M. incognita J2s [1]; Fig 3B, 100 µM peptide, 24 h, control = 100%): 35.06% | % Thrusting (M. incognita J2s [2]): 129.90% | effect on host invasion (in words) (G. pallida J2s [3]): does not inhibit host invasion | % Invasion (M. incognita J2s [4]): 26.63% | % Invasion (G. pallida J2s [5]): 51.98% | CI score [6]: 0.2225
